Results published in PMC6337650 (Molecules, 2018).

Key:
HepG2 cells = experiment: MTT antiproliferative assay, HepG2; type: cell-based, human; settings: Homo sapiens, HepG2, 48 h, MTT, mean ± SD, n=3; for inhibition at 100 µM: read-out: % Growth Inhibition at 100 μM HepG2
Description: (§1) The antiproliferative activity of the target compounds against a normal L02 cell line and the three different human cancer cell lines viz. colorectal (HCT-116), liver (BEL-7402) and liver (HepG2) were evaluated using a standard MTT-based colorimetric assay. All cell lines were obtained from the Key Laboratory of Natural Resources and Functional Molecules of the Changbai Mountain (Yanbian University, Jilin, China) and maintained in Dulbecco’s modified Eagle’s medium (DMEM) and RPMI Media 1640 (RPMI1640), supplemented with 10% fetal bovine serum (FBS) at 37 °C in a humidified atmosphere containing 5% CO2.
(§2) Cells were plated in 96-well plates at appropriate densities to ensure exponential growth throughout the experimental period (9 × 10^3 cells per well) and then allowed to adhere for 24 h. Cells were then treated for 48 h with four serial concentrations (1, 10, 50 and 100 µM) of each compound. 5-fluorouracil (5-FU) was used as a positive control. After 48 h of incubation, 10 µL of MTT solution was added to each well to a final concentration of 2 mg/mL. Plates were then incubated for a further 4 h. After incubation, the MTT solution was removed and 150 µL of DMSO was added to each well for coloration. The plates were shaken vigorously for 10 min at room temperature to ensure complete solubilization. The optical density (OD) was read on a microplate reader (ELx800, BioTek, Highland Park, Winooski, VT, USA) at a wavelength of 492 nm and the data were subsequently analyzed. The percentage of cell growth inhibition was calculated from the following equation: Inhibitory rate (%) = [(1 − (ODtreated-ODblank)/(ODcontrol-ODblank)] × 100.(1)

BEL-7402 cells = experiment: MTT antiproliferative assay, BEL-7402; type: cell-based, human; settings: Homo sapiens, Bel-7402, 48 h, MTT, mean ± SD, n=3; for inhibition at 100 µM: read-out: % Growth Inhibition at 100 μM BEL-7402
Description: as §1, §2

HCT-116 cells = experiment: MTT antiproliferative assay, HCT-116; type: cell-based, human; settings: Homo sapiens, HCT-116, 48 h, MTT, mean ± SD, n=3; for inhibition at 100 µM: read-out: % Growth Inhibition at 100 μM HCT-116
Description: as §1, §2

L02 cells = experiment: MTT assay on normal liver cells L02; type: cell-based; settings: Homo sapiens, normal liver cells, 48 h, MTT, Table 2, read-out: IC50 Values (μM) L02
Description: as §1
as §2, with “5-fluorouracil (5-FU) was used as a positive control.” left out

IC50 (HepG2 cells) | IC50 (BEL-7402 cells) | IC50 (HCT-116 cells) | melting point | SMILES | inhibition at 100 µM (HepG2 cells) | inhibition at 100 µM (BEL-7402 cells) | inhibition at 100 µM (HCT-116 cells) | IC50 (L02 cells)
> 100 µM | > 100 µM | 24 ± 1.2 µM | 102 to 103 °C | CN(C)CCNC(=O)[C@]1(C)CCC[C@@]2(C)[C@@H]3CC[C@@]4(C)C[C@]3(CC[C@@H]21)CC4=O [Compound 1b, (4R,4aS,6aR,9S,11aR,11bS)-N-(2-(dimethylamino)ethyl)-4,9,11b-trimethyl-8-oxotetradecahydro-6a,9-methanocyclohepta[a]naphthalene-4-carboxamide] | 57 ± 2.35% | 88.5 ± 2.02% | 76.6 ± 1.78% | > 100 µM
> 100 µM | > 100 µM | 30.7 ± 1.98 µM | 115 to 117 °C | CCN1CCN(C(=O)COC(=O)[C@]2(C)CCC[C@@]3(C)[C@@H]4CC[C@@]5(C)C[C@]4(CC[C@@H]32)CC5=O)CC1 [Compound 2b, 2-(4-ethylpiperazin-1-yl)-2-oxoethyl(4R,4aS,6aR,9S,11aR,11bS)-4,9,11b-trimethyl-8-oxotetradecahydro-6a,9-methanocyclohepta[a]naphthalene-4-carboxylate] | < 10% | 64.4 ± 1.66% | 60.4 ± 1.69% | > 100 µM
11.1 ± 0.55 µM | 53 ± 1.97 µM | 18.2 ± 1.26 µM | 149 to 150 °C | C[C@@]12CC[C@@H]3[C@@](CC[C@H]4[C@@]3(C)CCC[C@@]4(C)C(=O)OCC(=O)N3CCN(Cc4ccccc4)CC3)(CC1=O)C2 [Compound 2d, 2-(4-benzylpiperazin-1-yl)-2-oxoethyl(4R,4aS,6aR,9S,11aR,11bS)-4,9,11b-trimethyl-8-oxotetradecahydro-6a,9-methanocyclohepta[a]naphthalene-4-carboxylate] | 70.6 ± 0.89% | 70.9 ± 1.05% | 75.4 ± 1.06% | > 100 µM
20.5 ± 0.46 µM | 13.2 ± 0.32 µM | > 100 µM | 110 to 112 °C | C[C@@]12CC[C@@H]3[C@@](CC[C@H]4[C@@]3(C)CCC[C@@]4(C)C(=O)OCC(=O)N3CCCCCC3)(CC1=O)C2 [Compound 2e, 2-(azepan-1-yl)-2-oxoethyl(4R,4aS,6aR,9S,11aR,11bS)-4,9,11b-trimethyl-8-oxotetradecahydro-6a,9-methanocyclohepta[a]naphthalene-4-carboxylate] | 50.4 ± 0.57% | 64.9 ± 1.01% | 85.6 ± 0.96% | > 100 µM
> 100 µM | > 100 µM | 40.4 ± 0.97 µM | 143 to 145 °C | COC(=O)[C@@H](NC(=O)[C@]1(C)CCC[C@@]2(C)[C@@H]3CC[C@@]4(C)C[C@]3(CC[C@@H]21)CC4=O)c1ccccc1 [Compound 3a, Methyl(S)-2-phenyl-2-((4R,4aS,6aR,9S,11aR,11bS)-4,9,11b-trimethyl-8-oxotetradecahydro-6a,9-methanocyclohepta[a]naphthalene-4-carboxamido)acetate] | 75.25 ± 0.56% | 80 ± 0.95% | 86.26 ± 0.59% | > 100 µM
24.4 ± 1.75 µM | 36.5 ± 0.67 µM | 22.8 ± 0.81 µM | 147 to 148 °C | COC(=O)C(Cc1ccccc1)NC(=O)C1(C)CCCC2(C)C3CCC4(C)CC3(CCC12)CC4=O [Compound 3b, Methyl((4R,4aS,6aR,9S,11aR,11bS)-4,9,11b-trimethyl-8-oxotetradecahydro-6a,9-methanocyclohepta[a]naphthalene-4-carbonyl)-D-phenylalaninate] | 81.2 ± 2.66% | 61.8 ± 0.96% | 70.8 ± 0.98% | > 100 µM
> 100 µM | > 100 µM | 56.6 ± 1.56 µM | 154 to 156 °C | C[C@@]12CC[C@@H]3[C@@](CC[C@H]4[C@@]3(C)CCC[C@@]4(C)C(=O)OCC(=O)Nc3ccccc3)(CC1=O)C2 [Compound 4a, 2-oxo-2-(phenylamino)ethyl(4R,4aS,6aR,9S,11aR,11bS)-4,9,11b-trimethyl-8-oxotetradecahydro-6a,9-methanocyclohepta[a]naphthalene-4-carboxylate] | 31.2 ± 1.19% | 50.8 ± 2.31% | 60.4 ± 3.11% | > 100 µM
> 100 µM | > 100 µM | 17.2 ± 0.43 µM | 144 to 145 °C | C[C@@]12CC[C@@H]3[C@@](CC[C@H]4[C@@]3(C)CCC[C@@]4(C)C(=O)OCC(=O)Nc3cccc(F)c3)(CC1=O)C2 [Compound 4f, 2-((3-fluorophenyl)amino)-2-oxoethyl(4R,4aS,6aR,9S,11aR,11bS)-4,9,11b-trimethyl-8-oxotetradecahydro-6a,9-methanocyclohepta[a]naphthalene-4-carboxylate] | 49.12 ± 0.44% | 54.6 ± 3.11% | 68.7 ± 2.67% | > 100 µM
14.1 ± 0.27 µM | 12.14 ± 0.12 µM | > 100 µM | 189 to 190 °C | C[C@@]12CC[C@@H]3[C@@](CC[C@H]4[C@@]3(C)CCC[C@@]4(C)C(=O)OCC(=O)Nc3ccc([N+](=O)[O-])cc3)(CC1=O)C2 [Compound 4h, 2-((4-nitrophenyl)amino)-2-oxoethyl(4R,4aS,6aR,9S,11aR,11bS)-4,9,11b-trimethyl-8-oxotetradecahydro-6a,9-methanocyclohepta[a]naphthalene-4-carboxylate] | 76.5 ± 1% | 71.4 ± 2.36% | 55.4 ± 2.55% | > 100 µM
9.87 ± 0.13 µM | 27.1 ± 0.87 µM | 14.6 ± 0.51 µM | 83 to 84 °C | C[C@@]12CC[C@@H]3[C@@](CC[C@H]4[C@@]3(C)CCC[C@@]4(C)C(=O)OCC(=O)NCc3cn(-c4ccccc4)nn3)(CC1=O)C2 [Compound 5a, 2-oxo-2-(((1-phenyl-1H-1,2,3-triazol-4-yl)methyl)amino)ethyl(4R,4aS,6aR,9S,11aR,11bS)-4,9,11b-trimethyl-8-oxotetradecahydro-6a,9-methanocyclohepta[a]naphthalene-4-carboxylate] | 87 ± 1.06% | 90 ± 1.92% | 81.9 ± 2.55% | > 100 µM
11.7 ± 0.23 µM | 22.5 ± 0.58 µM | 7.44 ± 0.37 µM | 80 to 82 °C | C[C@@]12CC[C@@H]3[C@@](CC[C@H]4[C@@]3(C)CCC[C@@]4(C)C(=O)OCC(=O)NCc3cn(-c4ccc(Cl)cc4)nn3)(CC1=O)C2 [Compound 5b, 2-(((1-(4-chlorophenyl)-1H-1,2,3-triazol-4-yl)methyl)amino)-2-oxoethyl(4R,4aS,6aR,9S,11aR,11bS)-4,9,11b-trimethyl-8-oxotetradecahydro-6a,9-methanocyclohepta[a]naphthalene-4-carboxylate] | 82.1 ± 1.82% | 90.5 ± 1.04% | 85.6 ± 1.34% | > 100 µM
> 100 µM | > 100 µM | > 100 µM | – | C[C@@]12CC[C@@H]3[C@@](CC[C@H]4[C@@]3(C)CCC[C@@]4(C)C(=O)O)(CC1=O)C2 [Isosteviol, isosteviol, reference compound] | 11.8 ± 0.88% | 28 ± 1.79% | 34.1 ± 1.89% | > 100 µM
